Read-outs that look alike come from different tables or passages of the source.
Experiments:
Format in all cases: cell-based
HTT CJ mRNA = assay: Gene panel canonical junction qPCR assay, HTT; details: decrease in CJ mRNA levels, gene panel; read-out: HTT IC50
In short: (§1)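 A673 or K562 cells were treated for 24 h at 37 °C with an 11-point 3-fold dilution, top dose 10 uM, DMSO ≤0.25%. Canonical junction mRNA in lysates was quantified by one-step RT-qPCR and normalized to GAPDH, GUSB or PPIA.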

HTT mRNA = assay: Splicing assay (RT-qPCR) monitoring HTT canonical junction (CJ) and alternative junction (AJ) mRNA isoforms; details: A673 or K562 cells, 24 h treatment, top dose 10 uM
In short: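 A673 or K562 cells treated 24 h at 37 °C with an 11-point 3-fold dilution (top 10 uM final, DMSO ≤0.25%). Lysates assayed by one-step RT-qPCR for HTT CJ and AJ isoforms, normalized to GAPDH, GUSB (K562) or PPIA (A673).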

Target C CJ mRNA = assay: Gene panel canonical junction qPCR assay, Target C; details: decrease in CJ mRNA levels, gene panel; read-out: Target C IC50
In short: as §1

SMN2 CJ mRNA = assay: Gene panel canonical junction qPCR assay, SMN2; details: decrease in CJ mRNA levels, gene panel; read-out: SMN2 IC50
In short: as §1

[1] = decrease in CJ mRNA (50% response), read-out: HTT CJ AC50
[2] = increase in AJ mRNA (50% response), read-out: HTT AJ AC50

SMILES | IC50 (HTT CJ mRNA) | IC50 (Target C CJ mRNA) | IC50 (SMN2 CJ mRNA) | AC50 (HTT mRNA; [1]) | AC50 (HTT mRNA; [2])
Cn1cc2ccc(-c3ccc4c(=O)n(C5CCNCC5)ncc4c3)cc2n1 [Compound 263] | > 10000 nM | > 10000 nM | > 10000 nM | > 10000 nM | > 10000 nM
Cc1cn2nc(-c3ccc4c(=O)n(C5CCNC5)ncc4c3)cc(C)c2n1 (centres unmarked) [Compound 264, 6-{2,8-dimethylimidazo[1,2-b]pyridazin-6-yl}-2-(pyrrolidin-3-yl)phthalazin-1-one] | 1000 to 10000 nM | > 10000 nM | 100 to 1000 nM | 1000 to 10000 nM | 1000 to 10000 nM
Cc1cn2nc(-c3ccc4c(=O)n(C5CCN(C)CC5)ncc4c3)cc(C)c2n1 [Compound 265] | < 100 nM | 100 to 1000 nM | < 100 nM | < 100 nM | < 100 nM
Cc1cn2nc(-c3ccc4c(c3)CCN(C3CCNC(C)(C)C3)C4=O)cc(C)c2n1 (centres unmarked) [Compound 267] | 1000 to 10000 nM | 1000 to 10000 nM | < 100 nM | 1000 to 10000 nM | 100 to 1000 nM
Cc1cn2nc(-c3ccc4c(c3)CCN(C3CCNC3)C4=O)cc(C)c2n1 (centres unmarked) [Compound 269, 6-{2,8-dimethylimidazo[1,2-b]pyridazin-6-yl}-2-(pyrrolidin-3-yl)-3,4-dihydroisoquinolin-1-one] | > 10000 nM | > 10000 nM | 1000 to 10000 nM | > 10000 nM | > 10000 nM
Cc1cn2nc(-c3ccc4c(=O)n(C5CCN(C)C5)ncc4c3)cc(C)c2n1 (centres unmarked) [Compound 271, 6-{2,8-dimethylimidazo[1,2-b]pyridazin-6-yl}-2-(1-methylpyrrolidin-3-yl)phthalazin-1-one] | 1000 to 10000 nM | 1000 to 10000 nM | 100 to 1000 nM | 1000 to 10000 nM | 1000 to 10000 nM
Cc1cn2nc(-c3ccc4c(=O)n([C@@H]5CCN[C@H](C)C5)ncc4c3)cc(C)c2n1 [Compound 272] | < 100 nM | 100 to 1000 nM | < 100 nM | < 100 nM | 100 to 1000 nM
Cc1cn2nc(-c3ccc4c(=O)n(C5CCNC6(CC6)C5)ncc4c3)cc(C)c2n1 (centres unmarked) [Compound 274] | < 100 nM | < 100 nM | < 100 nM | < 100 nM | < 100 nM
Cc1cn2nc(-c3ccc4c(=O)n([C@H]5CCN(C)[C@H](C)C5)ncc4c3)cc(C)c2n1 [Compound 278] | < 100 nM | 100 to 1000 nM | < 100 nM | < 100 nM | < 100 nM
Cc1cn2nc(-c3ccc4c(=O)n(C5CCNC(C)(C)C5)ncc4c3)cc(C)c2n1 (centres unmarked) [Compound 279] | 100 to 1000 nM | 100 to 1000 nM | < 100 nM | 100 to 1000 nM | 100 to 1000 nM
Cc1cn2nc(-c3ccc4c(c3)CCN([C@@H]3CCN[C@H](C)C3)C4=O)cc(C)c2n1 [Compound 281] | 1000 to 10000 nM | 1000 to 10000 nM | 100 to 1000 nM | 1000 to 10000 nM | 1000 to 10000 nM
Cc1cn2nc(-c3ccc4c(=O)n(C5CCCNCC5)ncc4c3)cc(C)c2n1 (centres unmarked) [Compound 283, 2-(azepan-4-yl)-6-{2,8-dimethylimidazo[1,2-b]pyridazin-6-yl}phthalazin-1-one] | 100 to 1000 nM | 100 to 1000 nM | < 100 nM | 100 to 1000 nM | 100 to 1000 nM
O=c1c2ccc(-c3cn[nH]c3)cc2ncn1C1CCNCC1 [Compound 284] | > 10000 nM | > 10000 nM | 1000 to 10000 nM | > 10000 nM | > 10000 nM
Cc1nc2c(F)cc(-c3ccc4c(=O)n(C5CCNCC5)cnc4c3)cc2s1 [Compound 285] | 1000 to 10000 nM | > 10000 nM | < 100 nM | 1000 to 10000 nM | > 10000 nM
Cc1cn2nc(-c3ccc4c(=O)n(C5CCN(C)CC5)cnc4c3)nc2c(C)n1 [Compound 288, 7-{6,8-dimethyl-[1,2,4]triazolo[1,5-a]pyrazin-2-yl}-3-(1-methylpiperidin-4-yl)quinazolin-4-one] | 1000 to 10000 nM | 1000 to 10000 nM | 1000 to 10000 nM | 1000 to 10000 nM | 1000 to 10000 nM
Cc1cn2cc(-c3ccc4c(=O)n(C5CCNCC5)cnc4c3)ncc2n1 [Compound 297] | 1000 to 10000 nM | 1000 to 10000 nM | < 100 nM | 1000 to 10000 nM | 1000 to 10000 nM
Cc1nc2c(F)cc(-c3ccc4c(=O)n(C5CCN(C)CC5)cnc4c3)cc2o1 [Compound 300] | 100 to 1000 nM | 1000 to 10000 nM | < 100 nM | 100 to 1000 nM | 1000 to 10000 nM
Cc1cn2nc(-c3ccc4c(=O)n(C5CCN(C)CC5)cnc4c3)cc2c(C)n1 [Compound 303] | 1000 to 10000 nM | 1000 to 10000 nM | 100 to 1000 nM | 1000 to 10000 nM | 1000 to 10000 nM

Further lines, with some results ahead:

IC50 (HTT CJ mRNA) | IC50 (Target C CJ mRNA) | IC50 (SMN2 CJ mRNA) | SMILES | AC50 (HTT mRNA; [1]) | AC50 (HTT mRNA; [2])
> 10000 nM | > 10000 nM | 1000 to 10000 nM | O=c1c2ccc(-c3cn[nH]c3)cc2cnn1C1CCNCC1 [Compound 261] | > 10000 nM | > 10000 nM
1000 to 10000 nM | 1000 to 10000 nM | < 100 nM | Cc1cn2cc(-c3ccc4c(=O)n(C5CCNCC5)ncc4c3)cc(C(F)(F)F)c2n1 [Compound 262] | 1000 to 10000 nM | 1000 to 10000 nM
< 100 nM | 100 to 1000 nM | < 100 nM | CCN1CCC(n2ncc3cc(-c4cc(C)c5nc(C)cn5n4)ccc3c2=O)CC1 [Compound 266] | < 100 nM | < 100 nM
1000 to 10000 nM | > 10000 nM | < 100 nM | Cc1cn2nc(-c3ccc4c(c3)CCN(C3CCN(C)CC3)C4=O)cc(C)c2n1 [Compound 268] | 1000 to 10000 nM | 1000 to 10000 nM
1000 to 10000 nM | > 10000 nM | 100 to 1000 nM | CCN1CCC(N2CCc3cc(-c4cc(C)c5nc(C)cn5n4)ccc3C2=O)CC1 [Compound 270] | 1000 to 10000 nM | 1000 to 10000 nM
< 100 nM | < 100 nM | < 100 nM | Cc1cn2cc(-c3ccc4c(=O)n(C5CCNCC5)ccc4c3)cc(F)c2n1 [Compound 276, 6-(8-fluoro-2-methylimidazo[1,2-a]pyridin-6-yl)-2-(piperidin-4-yl)isoquinolin-1(2H)-one] | < 100 nM | < 100 nM
100 to 1000 nM | 1000 to 10000 nM | < 100 nM | Cc1cn2nc(-c3ccc4c(=O)n([C@@H]5CCN(C)[C@H](C)C5)ncc4c3)cc(C)c2n1 [Compound 277] | 100 to 1000 nM | 100 to 1000 nM
> 10000 nM | > 10000 nM | 1000 to 10000 nM | Cc1cn2nc(-c3ccc4c(c3)CCN(C3CCN(C)C3)C4=O)cc(C)c2n1 (centres unmarked) [Compound 282, 6-{2,8-dimethylimidazo[1,2-b]pyridazin-6-yl}-2-(1-methylpyrrolidin-3-yl)-3,4-dihydroisoquinolin-1-one] | > 10000 nM | > 10000 nM
1000 to 10000 nM | 1000 to 10000 nM | 100 to 1000 nM | Cc1cn2cc(-c3ccc4c(=O)n(C5CCNCC5)cnc4c3)nc2c(C)n1 [Compound 286] | 1000 to 10000 nM | 1000 to 10000 nM
100 to 1000 nM | 100 to 1000 nM | < 100 nM | Cc1cn2nc(-c3ccc4c(=O)n(C5CCNCC5)cnc4c3)nc2c(C)n1 [Compound 287, 7-{6,8-dimethyl-[1,2,4]triazolo[1,5-a]pyrazin-2-yl}-3-(piperidin-4-yl)quinazolin-4-one] | 100 to 1000 nM | 100 to 1000 nM
100 to 1000 nM | 100 to 1000 nM | 100 to 1000 nM | Cc1cn2nc(-c3ccc4c(=O)n(C5CCN(C)CC5)cnc4c3F)cc(C)c2n1 [Compound 290, 7-(2,8-dimethylimidazo[1,2-b]pyridazin-6-yl)-8-fluoro-3-(1-methylpiperidin-4-yl)quinazolin-4(3H)-one] | 100 to 1000 nM | 100 to 1000 nM
> 10000 nM | > 10000 nM | > 10000 nM | CN1CCC(n2cnc3cc(-c4cn[nH]c4)ccc3c2=O)CC1 [Compound 299] | > 10000 nM | > 10000 nM
1000 to 10000 nM | 1000 to 10000 nM | 1000 to 10000 nM | Cc1nc2c(F)cc(-c3ccc4c(=O)n(C5CCN(C)CC5)cnc4c3)cc2s1 [Compound 301] | 1000 to 10000 nM | 1000 to 10000 nM
1000 to 10000 nM | 1000 to 10000 nM | 100 to 1000 nM | Cc1cn2cc(-c3ccc4c(=O)n(C5CCN(C)CC5)cnc4c3)nc2c(C)n1 [Compound 302] | 1000 to 10000 nM | 1000 to 10000 nM
100 to 1000 nM | 1000 to 10000 nM | < 100 nM | CC[C@@H]1C[C@H](n2ncc3cc(-c4cc(C)c5nc(C)cn5n4)ccc3c2=O)CCN1 [Compound 304, 6-{2,8-dimethylimidazo[1,2-b]pyridazin-6-yl}-2-[(2R,4R)-2-ethylpiperidin-4-yl]phthalazin-1-one] | 1000 to 10000 nM | 1000 to 10000 nM
1000 to 10000 nM | 1000 to 10000 nM | 100 to 1000 nM | Cc1cn2cc(-c3ccc4c(=O)n(C5CCN(C)CC5)cnc4c3)ncc2n1 [Compound 308] | 1000 to 10000 nM | 1000 to 10000 nM
